Values belong to the compound of their own block, whether it stands above or below them.
Assays:
[1] = design: method as in supplement references [1-55] as printed per drug; settings: minimum steady-state blood plasma concentration after multiple dose administration; ref supplement references [1-55] per drug; cited from earlier work
[2] = Freeze-thaw stability in spiked pooled human plasma; type: physicochemical
[3] = Autosampler stability of ready for injection samples; type: physicochemical, human
[4] = Long-term stability in spiked pooled human plasma
[5] = Short-term stability in spiked pooled human plasma (bench-top, 4 °C, 56 °C)

SMILES: COc1cc(Nc2c(C#N)cnc3cc(OCCCN4CCN(C)CC4)c(OC)cc23)c(Cl)cc1Cl [Bosutinib]
cmin [1]: 147 ng/mL
Freeze-Thaw Accuracy [%] ([2]; validation standard 2xLLOV): 89.9%
Freeze-Thaw Accuracy [%] ([2]; validation standard LLOV): 102.2%
Freeze-Thaw Accuracy [%] ([2]; validation standard MOV): 92.6%
Freeze-Thaw Accuracy [%] ([2]; validation standard ULOV): 94.6%

SMILES: CC(=O)c1c(C)c2cnc(Nc3ccc(N4CCNCC4)cn3)nc2n(C2CCCC2)c1=O [Palbociclib]
Autosampler (24h, 4°C) Accuracy [%] ([3]; validation standard 2xLLOV): 99.9%
Autosampler (72h, 4°C) Accuracy [%] ([3]; validation standard 2xLLOV): 100.1%
Autosampler (24h, 4°C) Accuracy [%] ([3]; validation standard LLOV): 99.4%
Autosampler (72h, 4°C) Accuracy [%] ([3]; validation standard LLOV): 97.9%
Autosampler (24h, 4°C) Accuracy [%] ([3]; validation standard MOV): 101.0%
Autosampler (72h, 4°C) Accuracy [%] ([3]; validation standard MOV): 96.9%
Autosampler (24h, 4°C) Accuracy [%] ([3]; validation standard ULOV): 103.9%
Autosampler (72h, 4°C) Accuracy [%] ([3]; validation standard ULOV): 102.9%

SMILES: CCc1cc2c(cc1N1CCC(N3CCOCC3)CC1)C(C)(C)c1[nH]c3cc(C#N)ccc3c1C2=O [Alectinib]
Long-term stability, 1 month, -20°C Accuracy [%] ([4]; validation standard 2xLLOV): 87.1%
Long-term stability, 1 month, -80°C Accuracy [%] ([4]; validation standard 2xLLOV): 83.3%
Long-term stability, 2 month, -20°C Accuracy [%] ([4]; validation standard 2xLLOV): 86.4%
Long-term stability, 2 month, -80°C Accuracy [%] ([4]; validation standard 2xLLOV): 86.9%
Long-term stability, 3 month, -20°C Accuracy [%] ([4]; validation standard 2xLLOV): 82.7%
Long-term stability, 3 month, -80°C Accuracy [%] ([4]; validation standard 2xLLOV): 86.1%
Long-term stability, 6 weeks, 4°C, without daylight Accuracy [%] ([4]; validation standard 2xLLOV): 81.2%
Long-term stability, 1 month, -20°C Accuracy [%] ([4]; validation standard LLOV): 84.7%
Long-term stability, 1 month, -80°C Accuracy [%] ([4]; validation standard LLOV): 83.5%
Long-term stability, 2 month, -20°C Accuracy [%] ([4]; validation standard LLOV): 79.9%
Long-term stability, 2 month, -80°C Accuracy [%] ([4]; validation standard LLOV): 81.8%
Long-term stability, 3 month, -20°C Accuracy [%] ([4]; validation standard LLOV): 79.0%
Long-term stability, 3 month, -80°C Accuracy [%] ([4]; validation standard LLOV): 81.6%
Long-term stability, 6 weeks, 4°C, without daylight Accuracy [%] ([4]; validation standard LLOV): 75.7%
Long-term stability, 1 month, -20°C Accuracy [%] ([4]; validation standard MOV): 85.8%
Long-term stability, 1 month, -80°C Accuracy [%] ([4]; validation standard MOV): 83.9%
Long-term stability, 2 month, -20°C Accuracy [%] ([4]; validation standard MOV): 89.5%
Long-term stability, 2 month, -80°C Accuracy [%] ([4]; validation standard MOV): 89.3%
Long-term stability, 3 month, -20°C Accuracy [%] ([4]; validation standard MOV): 88.4%
Long-term stability, 3 month, -80°C Accuracy [%] ([4]; validation standard MOV): 86.7%
Long-term stability, 6 weeks, 4°C, without daylight Accuracy [%] ([4]; validation standard MOV): 92.7%
Long-term stability, 1 month, -20°C Accuracy [%] ([4]; validation standard ULOV): 85.2%
Long-term stability, 1 month, -80°C Accuracy [%] ([4]; validation standard ULOV): 81.7%
Long-term stability, 2 month, -20°C Accuracy [%] ([4]; validation standard ULOV): 88.3%
Long-term stability, 2 month, -80°C Accuracy [%] ([4]; validation standard ULOV): 88.1%
Long-term stability, 3 month, -20°C Accuracy [%] ([4]; validation standard ULOV): 84.7%
Long-term stability, 3 month, -80°C Accuracy [%] ([4]; validation standard ULOV): 84.8%
Long-term stability, 6 weeks, 4°C, without daylight Accuracy [%] ([4]; validation standard ULOV): 86.5%
Freeze-Thaw Accuracy [%] ([2]; validation standard 2xLLOV): 100.0%
Freeze-Thaw Accuracy [%] ([2]; validation standard LLOV): 91.2%
Freeze-Thaw Accuracy [%] ([2]; validation standard MOV): 101.2%
Freeze-Thaw Accuracy [%] ([2]; validation standard ULOV): 96.5%
Autosampler (24h, 4°C) Accuracy [%] ([3]; validation standard 2xLLOV): 99.6%
Autosampler (72h, 4°C) Accuracy [%] ([3]; validation standard 2xLLOV): 102.6%
Autosampler (24h, 4°C) Accuracy [%] ([3]; validation standard LLOV): 91.8%
Autosampler (72h, 4°C) Accuracy [%] ([3]; validation standard LLOV): 93.7%
Autosampler (24h, 4°C) Accuracy [%] ([3]; validation standard MOV): 104.1%
Autosampler (72h, 4°C) Accuracy [%] ([3]; validation standard MOV): 104.1%
Autosampler (24h, 4°C) Accuracy [%] ([3]; validation standard ULOV): 99.3%
Autosampler (72h, 4°C) Accuracy [%] ([3]; validation standard ULOV): 100.6%

Freeze-Thaw Accuracy [%] ([2]; validation standard 2xLLOV): 98.2%
Freeze-Thaw Accuracy [%] ([2]; validation standard LLOV): 110.6%
Freeze-Thaw Accuracy [%] ([2]; validation standard MOV): 96.5%
Freeze-Thaw Accuracy [%] ([2]; validation standard ULOV): 101.5%
Autosampler (24h, 4°C) Accuracy [%] ([3]; validation standard 2xLLOV): 103.2%
Autosampler (72h, 4°C) Accuracy [%] ([3]; validation standard 2xLLOV): 98.6%
Autosampler (24h, 4°C) Accuracy [%] ([3]; validation standard LLOV): 109.4%
Autosampler (72h, 4°C) Accuracy [%] ([3]; validation standard LLOV): 109.4%
Autosampler (24h, 4°C) Accuracy [%] ([3]; validation standard MOV): 102.6%
Autosampler (72h, 4°C) Accuracy [%] ([3]; validation standard MOV): 97.1%
Autosampler (24h, 4°C) Accuracy [%] ([3]; validation standard ULOV): 103.9%
Autosampler (72h, 4°C) Accuracy [%] ([3]; validation standard ULOV): 101.4%
SMILES: CC[C@H](Nc1ncnc2[nH]cnc12)c1nc2cccc(F)c2c(=O)n1-c1ccccc1 [Idelalisib]
cmin [1]: 318 ng/mL

SMILES: CO[C@@H]1[C@H](N(C)C(=O)c2ccccc2)C[C@H]2O[C@]1(C)n1c3ccccc3c3c4c(c5c6ccccc6n2c5c31)C(=O)NC4 [Midostaurin]
Short-time stability (1h, 56°C) Accuracy [%] ([5]; validation standard 2xLLOV): 45.3%
Short-time stability (24h, 4°C, without daylight) Accuracy [%] ([5]; validation standard 2xLLOV): 93.5%
Short-time stability (24h, RT, with daylight) Accuracy [%] ([5]; validation standard 2xLLOV): 91.7%
Short-time stability (24h, RT, without daylight) Accuracy [%] ([5]; validation standard 2xLLOV): 88.1%
Short-time stability (1h, 56°C) Accuracy [%] ([5]; validation standard LLOV): 39.0%
Short-time stability (24h, 4°C, without daylight) Accuracy [%] ([5]; validation standard LLOV): 90.3%
Short-time stability (24h, RT, with daylight) Accuracy [%] ([5]; validation standard LLOV): 89.5%
Short-time stability (24h, RT, without daylight) Accuracy [%] ([5]; validation standard LLOV): 85.7%
Short-time stability (1h, 56°C) Accuracy [%] ([5]; validation standard MOV): 41.7%
Short-time stability (24h, 4°C, without daylight) Accuracy [%] ([5]; validation standard MOV): 103.7%
Short-time stability (24h, RT, with daylight) Accuracy [%] ([5]; validation standard MOV): 88.3%
Short-time stability (24h, RT, without daylight) Accuracy [%] ([5]; validation standard MOV): 91.0%
Short-time stability (1h, 56°C) Accuracy [%] ([5]; validation standard ULOV): 37.7%
Short-time stability (24h, 4°C, without daylight) Accuracy [%] ([5]; validation standard ULOV): 98.8%
Short-time stability (24h, RT, with daylight) Accuracy [%] ([5]; validation standard ULOV): 89.5%
Short-time stability (24h, RT, without daylight) Accuracy [%] ([5]; validation standard ULOV): 88.4%
Long-term stability, 1 month, -20°C Accuracy [%] ([4]; validation standard 2xLLOV): 105.5%
Long-term stability, 1 month, -80°C Accuracy [%] ([4]; validation standard 2xLLOV): 106.8%
Long-term stability, 2 month, -20°C Accuracy [%] ([4]; validation standard 2xLLOV): 106.0%
Long-term stability, 2 month, -80°C Accuracy [%] ([4]; validation standard 2xLLOV): 108.5%
Long-term stability, 3 month, -20°C Accuracy [%] ([4]; validation standard 2xLLOV): 97.1%
Long-term stability, 3 month, -80°C Accuracy [%] ([4]; validation standard 2xLLOV): 106.8%
Long-term stability, 6 weeks, 4°C, without daylight Accuracy [%] ([4]; validation standard 2xLLOV): 94.2%
Long-term stability, 1 month, -20°C Accuracy [%] ([4]; validation standard LLOV): 109.4%
Long-term stability, 1 month, -80°C Accuracy [%] ([4]; validation standard LLOV): 106.4%
Long-term stability, 2 month, -20°C Accuracy [%] ([4]; validation standard LLOV): 106.5%
Long-term stability, 2 month, -80°C Accuracy [%] ([4]; validation standard LLOV): 101.2%
Long-term stability, 3 month, -20°C Accuracy [%] ([4]; validation standard LLOV): 102.8%
Long-term stability, 3 month, -80°C Accuracy [%] ([4]; validation standard LLOV): 112.8%
Long-term stability, 6 weeks, 4°C, without daylight Accuracy [%] ([4]; validation standard LLOV): 102.3%
Long-term stability, 1 month, -20°C Accuracy [%] ([4]; validation standard MOV): 105.8%
Long-term stability, 1 month, -80°C Accuracy [%] ([4]; validation standard MOV): 108.1%
Long-term stability, 2 month, -20°C Accuracy [%] ([4]; validation standard MOV): 113.7%
Long-term stability, 2 month, -80°C Accuracy [%] ([4]; validation standard MOV): 116.3%
Long-term stability, 3 month, -20°C Accuracy [%] ([4]; validation standard MOV): 102.0%
Long-term stability, 3 month, -80°C Accuracy [%] ([4]; validation standard MOV): 102.9%
Long-term stability, 6 weeks, 4°C, without daylight Accuracy [%] ([4]; validation standard MOV): 103.5%
Long-term stability, 1 month, -20°C Accuracy [%] ([4]; validation standard ULOV): 107.3%
Long-term stability, 1 month, -80°C Accuracy [%] ([4]; validation standard ULOV): 103.4%
Long-term stability, 2 month, -20°C Accuracy [%] ([4]; validation standard ULOV): 118.6%
Long-term stability, 2 month, -80°C Accuracy [%] ([4]; validation standard ULOV): 111.4%
Long-term stability, 3 month, -20°C Accuracy [%] ([4]; validation standard ULOV): 93.8%
Long-term stability, 3 month, -80°C Accuracy [%] ([4]; validation standard ULOV): 107.0%
Long-term stability, 6 weeks, 4°C, without daylight Accuracy [%] ([4]; validation standard ULOV): 97.3%
Freeze-Thaw Accuracy [%] ([2]; validation standard 2xLLOV): 95.9%
Freeze-Thaw Accuracy [%] ([2]; validation standard LLOV): 100.6%
Freeze-Thaw Accuracy [%] ([2]; validation standard MOV): 94.6%
Freeze-Thaw Accuracy [%] ([2]; validation standard ULOV): 97.4%
Autosampler (24h, 4°C) Accuracy [%] ([3]; validation standard 2xLLOV): 103.3%
Autosampler (72h, 4°C) Accuracy [%] ([3]; validation standard 2xLLOV): 103.0%
Autosampler (24h, 4°C) Accuracy [%] ([3]; validation standard LLOV): 109.7%
Autosampler (72h, 4°C) Accuracy [%] ([3]; validation standard LLOV): 108.2%
Autosampler (24h, 4°C) Accuracy [%] ([3]; validation standard MOV): 101.4%
Autosampler (72h, 4°C) Accuracy [%] ([3]; validation standard MOV): 103.7%
Autosampler (24h, 4°C) Accuracy [%] ([3]; validation standard ULOV): 102.8%
Autosampler (72h, 4°C) Accuracy [%] ([3]; validation standard ULOV): 97.9%
